Laboratory results as given in paper PMC3914206.

Columns and labels:
panel of 442 kinases [1] = molecular target: T1, panel of 442 kinases (Homo sapiens, UniProt P08922); format: binding; settings: Compound Concentration 10 µM
T1 construct: purchased KINOMEscan
From the text: (§1) We assessed the selectivity of members of this scaffold using the KINOMEscan methodology across a near comprehensive panel of 442 kinases [[18,27]].

panel of 442 kinases [2] = molecular target: T2, panel of 442 kinases (Homo sapiens, UniProt Q56UN5); format: binding; settings: kinase YSK4; compound concentration 10 µM
T2 construct: purchased KINOMEscan
T2 sequence (Q56UN5 1-1328): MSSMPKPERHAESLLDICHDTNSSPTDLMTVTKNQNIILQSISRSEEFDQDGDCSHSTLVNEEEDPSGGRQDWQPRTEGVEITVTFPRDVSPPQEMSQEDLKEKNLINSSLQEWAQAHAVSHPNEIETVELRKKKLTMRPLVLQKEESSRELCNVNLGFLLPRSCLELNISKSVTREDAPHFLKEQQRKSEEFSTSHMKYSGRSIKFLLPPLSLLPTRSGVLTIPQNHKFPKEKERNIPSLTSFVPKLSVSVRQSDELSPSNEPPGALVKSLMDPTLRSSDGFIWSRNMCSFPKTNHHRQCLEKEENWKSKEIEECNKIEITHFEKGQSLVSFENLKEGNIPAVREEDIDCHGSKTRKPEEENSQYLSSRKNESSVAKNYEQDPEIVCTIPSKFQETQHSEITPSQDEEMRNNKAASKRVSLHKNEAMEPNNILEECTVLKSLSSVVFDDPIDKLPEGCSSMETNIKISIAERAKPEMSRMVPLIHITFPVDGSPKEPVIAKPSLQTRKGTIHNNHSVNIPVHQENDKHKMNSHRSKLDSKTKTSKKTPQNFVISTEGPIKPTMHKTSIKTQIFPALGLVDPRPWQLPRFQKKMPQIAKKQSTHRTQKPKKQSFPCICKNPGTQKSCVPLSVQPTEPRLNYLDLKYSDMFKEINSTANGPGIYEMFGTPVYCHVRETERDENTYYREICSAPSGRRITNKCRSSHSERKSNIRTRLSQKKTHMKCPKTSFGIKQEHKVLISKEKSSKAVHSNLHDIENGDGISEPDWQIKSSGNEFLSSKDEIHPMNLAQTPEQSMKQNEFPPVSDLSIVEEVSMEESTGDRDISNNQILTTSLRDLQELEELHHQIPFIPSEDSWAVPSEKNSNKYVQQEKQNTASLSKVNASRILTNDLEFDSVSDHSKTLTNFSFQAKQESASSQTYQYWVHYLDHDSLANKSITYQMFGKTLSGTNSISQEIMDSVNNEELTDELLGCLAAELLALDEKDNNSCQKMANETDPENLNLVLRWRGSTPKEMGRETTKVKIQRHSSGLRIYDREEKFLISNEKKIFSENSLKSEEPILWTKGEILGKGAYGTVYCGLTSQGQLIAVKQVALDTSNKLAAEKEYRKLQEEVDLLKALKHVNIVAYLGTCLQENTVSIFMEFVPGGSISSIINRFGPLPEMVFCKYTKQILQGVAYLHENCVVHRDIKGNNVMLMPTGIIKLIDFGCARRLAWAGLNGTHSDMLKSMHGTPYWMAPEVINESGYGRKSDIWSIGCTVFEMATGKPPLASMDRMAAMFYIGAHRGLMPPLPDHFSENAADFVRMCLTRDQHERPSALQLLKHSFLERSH
From the text: as §1

T1 sequence (P08922 28-2347): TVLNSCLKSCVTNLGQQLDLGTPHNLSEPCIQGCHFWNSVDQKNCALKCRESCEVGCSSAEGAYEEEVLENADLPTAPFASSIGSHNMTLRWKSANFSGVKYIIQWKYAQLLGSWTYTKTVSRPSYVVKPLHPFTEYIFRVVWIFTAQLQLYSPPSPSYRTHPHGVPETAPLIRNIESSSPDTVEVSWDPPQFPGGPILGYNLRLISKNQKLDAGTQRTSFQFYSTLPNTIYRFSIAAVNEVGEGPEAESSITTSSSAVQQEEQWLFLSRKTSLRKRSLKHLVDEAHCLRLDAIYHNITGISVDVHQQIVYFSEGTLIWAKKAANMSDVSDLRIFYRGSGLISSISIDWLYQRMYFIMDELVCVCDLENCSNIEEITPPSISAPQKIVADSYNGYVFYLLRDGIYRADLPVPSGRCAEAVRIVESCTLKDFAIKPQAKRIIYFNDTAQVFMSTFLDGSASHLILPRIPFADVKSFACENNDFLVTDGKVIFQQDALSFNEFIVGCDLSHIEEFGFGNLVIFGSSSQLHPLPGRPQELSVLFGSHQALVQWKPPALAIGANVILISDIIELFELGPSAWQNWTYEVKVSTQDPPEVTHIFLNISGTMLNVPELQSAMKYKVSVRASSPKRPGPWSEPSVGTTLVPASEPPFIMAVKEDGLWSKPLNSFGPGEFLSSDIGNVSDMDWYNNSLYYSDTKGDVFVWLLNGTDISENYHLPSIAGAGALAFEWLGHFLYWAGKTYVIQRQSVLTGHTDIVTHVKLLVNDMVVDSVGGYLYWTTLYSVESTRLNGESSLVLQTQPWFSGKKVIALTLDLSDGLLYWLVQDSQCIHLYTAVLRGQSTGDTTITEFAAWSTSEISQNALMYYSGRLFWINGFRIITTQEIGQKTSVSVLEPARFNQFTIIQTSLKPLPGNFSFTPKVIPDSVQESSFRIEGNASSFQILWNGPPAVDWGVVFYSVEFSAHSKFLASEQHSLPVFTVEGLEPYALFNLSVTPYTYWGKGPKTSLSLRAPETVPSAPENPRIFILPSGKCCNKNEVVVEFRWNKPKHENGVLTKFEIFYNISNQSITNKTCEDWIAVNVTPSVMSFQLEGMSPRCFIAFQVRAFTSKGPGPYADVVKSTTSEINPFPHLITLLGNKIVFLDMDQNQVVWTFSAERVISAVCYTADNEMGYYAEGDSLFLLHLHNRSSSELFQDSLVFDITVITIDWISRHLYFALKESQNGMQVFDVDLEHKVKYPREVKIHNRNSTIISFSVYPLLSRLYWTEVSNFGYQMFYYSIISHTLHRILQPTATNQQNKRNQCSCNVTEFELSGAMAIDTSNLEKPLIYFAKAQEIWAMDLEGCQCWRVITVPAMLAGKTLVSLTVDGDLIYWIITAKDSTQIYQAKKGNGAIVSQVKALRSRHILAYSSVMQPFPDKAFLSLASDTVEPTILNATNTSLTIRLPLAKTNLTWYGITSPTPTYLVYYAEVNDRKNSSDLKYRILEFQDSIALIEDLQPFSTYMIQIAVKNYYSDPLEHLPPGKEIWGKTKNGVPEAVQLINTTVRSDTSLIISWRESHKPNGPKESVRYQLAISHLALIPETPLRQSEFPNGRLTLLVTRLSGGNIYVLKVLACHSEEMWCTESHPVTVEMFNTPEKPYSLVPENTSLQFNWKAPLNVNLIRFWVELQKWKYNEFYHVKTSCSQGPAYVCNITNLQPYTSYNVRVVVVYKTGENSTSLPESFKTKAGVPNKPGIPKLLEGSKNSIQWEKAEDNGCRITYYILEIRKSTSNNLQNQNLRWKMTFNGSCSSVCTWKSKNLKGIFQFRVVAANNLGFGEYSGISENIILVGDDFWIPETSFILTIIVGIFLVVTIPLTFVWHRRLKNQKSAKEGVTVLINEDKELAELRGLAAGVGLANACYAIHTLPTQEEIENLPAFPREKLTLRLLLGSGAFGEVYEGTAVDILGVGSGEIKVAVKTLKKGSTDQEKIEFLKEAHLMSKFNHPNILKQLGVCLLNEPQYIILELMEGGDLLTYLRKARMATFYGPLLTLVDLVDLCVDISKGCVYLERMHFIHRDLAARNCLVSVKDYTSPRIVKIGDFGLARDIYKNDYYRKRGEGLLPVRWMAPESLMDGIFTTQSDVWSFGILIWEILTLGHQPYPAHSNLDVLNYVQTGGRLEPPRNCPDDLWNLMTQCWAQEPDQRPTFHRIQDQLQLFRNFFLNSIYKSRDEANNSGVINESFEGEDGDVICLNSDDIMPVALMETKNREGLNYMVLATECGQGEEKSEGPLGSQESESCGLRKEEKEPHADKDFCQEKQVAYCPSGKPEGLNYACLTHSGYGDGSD

| SMILES | KINOMEscan: ROS1 (panel of 442 kinases [1]) | % Ctrl, YSK4 (panel of 442 kinases [2]) |
| --- | --- | --- |
| COc1cc(C(=O)N2CCC(N3CCN(C)CC3)CC2)ccc1Nc1ncc2c(n1)N(C)c1ccccc1C(=O)N2C [15 (LRRK2-IN-1)] | 12 | 99 % Ctrl |
| COc1cc(C(=O)N2CCC(N3CCN(C)CC3)CC2)ccc1Nc1ncc2c(n1)N1CCc3cccc(c31)C(=O)N2C [Compound 24] | 24 | 24 % Ctrl |
| COc1cc(C(=O)N2CCC(N3CCN(C)CC3)CC2)ccc1Nc1ncc2c(n1)N(C1CCCC1)c1ccccc1C(=O)N2C [Compound 25, 11-cyclopentyl-2-((2-methoxy-4-(4-(4-methylpiperazin-1-yl)piperidine-1-carbonyl)phenyl)amino)-5-methyl-5H-benzo[e]pyrimido[5,4-b][1,4]diazepin-6(11H)-one] | 3.4 | 100 % Ctrl |
| CCOc1cc(C(=O)N2CCC(N3CCN(C)CC3)CC2)ccc1Nc1ncc2c(n1)N(C1CCCC1)c1ccccc1C(=O)N2C [Compound 26] | 20 | 100 % Ctrl |
